Where two headings read alike, the source gives them in different places. dPhe(Cl) = D-phenylalanine carrying a chlorine on the ring; Nle = CCCC[C@H](N)C(=O)O
Experiments:
[1] = test system: patients; details: injection, alone or combined with pheniolamine; cited from earlier work
[2] = test system: human male; assay type: in vivo
Experimental: The peptides described herein were prepared by sterile methods to a final concentration of 10 mg of peptide per ml of physiological salina. In addition to a full dose providing 10 mg of the peptide to the individual, doses of 0.1 to 0.3 ml (providing 1 mg to 3 mg of the peptide to each individual) of this stock material were also injected into volunteers, with a dose of 0.1 to 0.2 ml being the most often used dosage.
A dose of 3.75 mg given to volunteers produced a long lasting erection of 4 to 6 hour duration. […] In some, this discomfort was considerable. […] Accordingly, although dosages of from about 1.0 mg to about 10.0 mg show the desired activity according to the present invention, it is preferred that the lower ranges of dosage which bring about the desired erection without undesirable side effects be used. Accordingly, it is preferred that dosages of about 1.5 mg to 2.5 mg of peptide be provided when the route of administration is subcutaneous or intramuscular. With other routes of administration, this range may require adjustment, however, it is still preferred that the lower range of adjusted effective dosages for the selected route of administration be used.
Another of the peptides according to the present invention (Ac-Nle-Asp-His-D-Phe-Cl-Arg-Trp-Lys-Gly-NH2) induced an erection within 60 minutes following administration at a concentration of 2.5 mg. This erection lasted, intermittently, for up to six hours.

[3] = test system: castrated dog; experiment: Erectile response after injection into the castrated dog; assay type: in vivo

Compound: COc1ccc(Cc2nccc3cc(OC)c(OC)cc23)cc1OC [papaverine]
- patients in whom an erection is induced [1]: about 70%

Compound: Ac-Ser-Tyr-Ser-Nle-Glu-His-D-Phe-Cl-Arg-Trp-Gly-Lys-Pro-Val-NH2 [reference compound]
- erectile response ([2]; highest dose administered (about 20 mg), human): did not cause an erectile response

Compound: Ac-Nle-Asp-His-D-Phe-Cl-Arg-Trp-Lys-NH2 [Example II]
- erectile activity ([2]; 1.25 mg (smallest dose) subcutaneously, human volunteers): generally no erectile activity was noted
- stomach discomfort ([2]; human, in vivo): stomach discomfort was noted
- erectile response ([3]; castrated dog first primed with testosterone): did so
- erectile response ([3]; castrated dog, not primed): caused no erectile response

Compound: Ac-Nle-Asp-His-D-Phe-Cl-Arg-Trp-Lys-Gly-NH2 ({Ac-Nle-Asp-H2N-dPhe(Cl)}-RWKG-NH2)
- time to erection following administration ([2]; 1.25 mg, compared with 2.5 mg, human): took longer to initially occur
- duration of erection (sustained intermittently) ([2]; 1.25 mg, human): up to 6 hours
- time to erection following administration ([2]; 2.5 mg, human): ≤ 60 min
